Reference: US11382328B2, “Rapid drug discovery methods for pathogen inactivation” (priority 2019, dated 2022)
Structures can show the parent of a compound that is named as a salt.

Tested on: E. coli strain W3110
Assay: Synergy assays: Biolog chemical sensitivity panels with Group IB metal, coefficient of drug interaction (CDI) from relative growth
Type: cell-based
Settings: for CDI (coefficient of drug interaction), gold + biocide: Gold (μM); for CDI (coefficient of drug interaction), copper mixed with biocide: Copper (mM) section
[1] = Copper (mM), 1st of 3 copper concentrations (head line not shown), biocide concentration 1 of 4, E. coli
[2] = Copper (mM), 1st of 3 copper concentrations (head line not shown), biocide concentration 2 of 4, E. coli
[3] = Copper (mM), 1st of 3 copper concentrations (head line not shown), biocide concentration 3 of 4, E. coli
[4] = Copper (mM), 1st of 3 copper concentrations (head line not shown), biocide concentration 4 of 4, E. coli
[5] = Copper (mM), 2nd of 3 copper concentrations (head line not shown), biocide concentration 1 of 4, E. coli
[6] = Copper (mM), 2nd of 3 copper concentrations (head line not shown), biocide concentration 2 of 4, E. coli
[7] = Copper (mM), 2nd of 3 copper concentrations (head line not shown), biocide concentration 3 of 4, E. coli
[8] = Copper (mM), 2nd of 3 copper concentrations (head line not shown), biocide concentration 4 of 4, E. coli
[9] = Copper (mM), 3rd of 3 copper concentrations (head line not shown), biocide concentration 1 of 4, E. coli
[10] = Copper (mM), 3rd of 3 copper concentrations (head line not shown), biocide concentration 2 of 4, E. coli
[11] = Copper (mM), 3rd of 3 copper concentrations (head line not shown), biocide concentration 3 of 4, E. coli
[12] = Copper (mM), 3rd of 3 copper concentrations (head line not shown), biocide concentration 4 of 4, E. coli
[13] = first of 3 gold concentrations, biocide concentration 1 of 4
[14] = first of 3 gold concentrations, biocide concentration 2 of 4
[15] = first of 3 gold concentrations, biocide concentration 3 of 4
[16] = first of 3 gold concentrations, biocide concentration 4 of 4
[17] = second of 3 gold concentrations, biocide concentration 3 of 4
[18] = second of 3 gold concentrations, biocide concentration 4 of 4
[19] = third of 3 gold concentrations, biocide concentration 1 of 4
[20] = third of 3 gold concentrations, biocide concentration 2 of 4
[21] = third of 3 gold concentrations, biocide concentration 3 of 4
[22] = third of 3 gold concentrations, biocide concentration 4 of 4
[23] = Silver 0.5 μM, biocide concentration 2 of 4
[24] = Silver 0.5 μM, biocide concentration 3 of 4
[25] = Silver 0.5 μM, biocide concentration 4 of 4
[26] = Silver 1.0 μM, biocide concentration 1 of 4
[27] = Silver 1.0 μM, biocide concentration 2 of 4
[28] = Silver 1.0 μM, biocide concentration 3 of 4
[29] = Silver 1.0 μM, biocide concentration 4 of 4
[30] = Silver 5.0 μM, biocide concentration 1 of 4
[31] = Silver 5.0 μM, biocide concentration 2 of 4
[32] = Silver 5.0 μM, biocide concentration 3 of 4
[33] = Silver 5.0 μM, biocide concentration 4 of 4
[34] = Silver 0.5 μM, 4th of four biocide concentrations, E. coli
[35] = Silver 1.0 μM, 4th of four biocide concentrations, E. coli
[36] = Silver 5.0 μM, 4th of four biocide concentrations, E. coli
[37] = Gold 50 μM, biocide concentration 3 of 4, E. coli
[38] = Gold 50 μM, biocide concentration 4 of 4, E. coli
[39] = 3rd of 3 copper concentrations (value not shown), 4th of four biocide concentrations
[40] = Gold 25 μM, biocide concentration 4 of 4, E. coli
[41] = Silver 0.5 μM, 3rd of four biocide concentrations, E. coli
[42] = Silver 1.0 μM, 3rd of four biocide concentrations, E. coli
[43] = Silver 5.0 μM, 3rd of four biocide concentrations, E. coli

Molecule: colistin
- CDI (coefficient of drug interaction) [1]: 0.95
- CDI (coefficient of drug interaction) [2]: 0.98
- CDI (coefficient of drug interaction) [3]: Tox
- CDI (coefficient of drug interaction) [4]: Tox
- CDI (coefficient of drug interaction) [5]: 0.82
- CDI (coefficient of drug interaction) [6]: 0.87
- CDI (coefficient of drug interaction) [7]: Tox
- CDI (coefficient of drug interaction) [8]: Tox
- CDI (coefficient of drug interaction) [9]: 0.63
- CDI (coefficient of drug interaction) [10]: 0.45
- CDI (coefficient of drug interaction) [11]: Tox
- CDI (coefficient of drug interaction) [12]: Tox
- CDI (coefficient of drug interaction), gold + biocide [13]: 1.10
- CDI (coefficient of drug interaction), gold + biocide [14]: 1.18
- CDI (coefficient of drug interaction), gold + biocide [15]: Tox
- CDI (coefficient of drug interaction), gold + biocide [16]: Tox
- CDI (coefficient of drug interaction), gold + biocide (second of 3 gold concentrations, biocide concentration 2 of 4): 0.95
- CDI (coefficient of drug interaction), gold + biocide [17]: Tox
- CDI (coefficient of drug interaction), gold + biocide [18]: Tox
- CDI (coefficient of drug interaction), gold + biocide [19]: 1.09
- CDI (coefficient of drug interaction), gold + biocide [20]: 0.14
- CDI (coefficient of drug interaction), gold + biocide [21]: Tox
- CDI (coefficient of drug interaction), gold + biocide [22]: Tox
- CDI (Silver 0.5 μM, biocide concentration 1 of 4): 0.95
- CDI [23]: 0.75
- CDI [24]: Tox
- CDI [25]: Tox
- CDI [26]: 0.97
- CDI [27]: 0.24
- CDI [28]: Tox
- CDI [29]: Tox
- CDI [30]: 0.84
- CDI [31]: 0.08
- CDI [32]: Tox
- CDI [33]: Tox

Molecule: O=C(O)c1ccccc1S [thiosalicylic acid]
- CDI (coefficient of drug interaction), silver + biocide [34]: Tox
- CDI (coefficient of drug interaction), silver + biocide [35]: Tox
- CDI (coefficient of drug interaction), silver + biocide [36]: Tox

Molecule: CCn1cc(C(=O)O)c(=O)c2cc(F)c(N3CCNCC3)nc21 [enoxacin]
- CDI (coefficient of drug interaction) [37]: Tox
- CDI (coefficient of drug interaction) [38]: Tox

Molecule: penimepicycline
- CDI (coefficient of drug interaction) [1]: 0.91
- CDI (coefficient of drug interaction) [2]: 1.07
- CDI (coefficient of drug interaction) [3]: Tox
- CDI (coefficient of drug interaction) [4]: Tox
- CDI (coefficient of drug interaction) [5]: 0.70
- CDI (coefficient of drug interaction) [6]: 0.87
- CDI (coefficient of drug interaction) [7]: Tox
- CDI (coefficient of drug interaction) [8]: Tox
- CDI (coefficient of drug interaction) [9]: 0.51
- CDI (coefficient of drug interaction) [10]: 0.64
- CDI (coefficient of drug interaction) [11]: Tox
- CDI (coefficient of drug interaction) [12]: Tox
- CDI (coefficient of drug interaction), gold + biocide [13]: 1.07
- CDI (coefficient of drug interaction), gold + biocide [14]: 1.12
- CDI (coefficient of drug interaction), gold + biocide [15]: Tox
- CDI (coefficient of drug interaction), gold + biocide [16]: Tox
- CDI (coefficient of drug interaction), gold + biocide [17]: Tox
- CDI (coefficient of drug interaction), gold + biocide [18]: Tox
- CDI (coefficient of drug interaction), gold + biocide [19]: 0.90
- CDI (coefficient of drug interaction), gold + biocide [20]: 0.80
- CDI (coefficient of drug interaction), gold + biocide [21]: Tox
- CDI (coefficient of drug interaction), gold + biocide [22]: Tox
- CDI [23]: 1.10
- CDI [24]: Tox
- CDI [25]: Tox
- CDI [26]: 0.91
- CDI [27]: 0.91
- CDI [28]: Tox
- CDI [29]: Tox
- CDI [30]: 0.49
- CDI [31]: 0.34
- CDI [32]: Tox
- CDI [33]: Tox

Molecule: acriflavine
- CDI (coefficient of drug interaction), copper mixed with biocide (1st of 3 copper concentrations (value not shown), 1st of four biocide concentrations): 1.00
- CDI (coefficient of drug interaction), copper mixed with biocide (1st of 3 copper concentrations (value not shown), 2nd of four biocide concentrations): 1.03
- CDI (coefficient of drug interaction), copper mixed with biocide (1st of 3 copper concentrations (value not shown), 3rd of four biocide concentrations): 0.95
- CDI (coefficient of drug interaction), copper mixed with biocide (2nd of 3 copper concentrations (value not shown), 1st of four biocide concentrations): 0.88
- CDI (coefficient of drug interaction), copper mixed with biocide (2nd of 3 copper concentrations (value not shown), 2nd of four biocide concentrations): 0.91
- CDI (coefficient of drug interaction), copper mixed with biocide (2nd of 3 copper concentrations (value not shown), 3rd of four biocide concentrations): 0.95
- CDI (coefficient of drug interaction), copper mixed with biocide (3rd of 3 copper concentrations (value not shown), 1st of four biocide concentrations): 0.89
- CDI (coefficient of drug interaction), copper mixed with biocide (3rd of 3 copper concentrations (value not shown), 2nd of four biocide concentrations): 0.82
- CDI (coefficient of drug interaction), copper mixed with biocide (3rd of 3 copper concentrations (value not shown), 3rd of four biocide concentrations): 0.81
- CDI (coefficient of drug interaction), copper mixed with biocide [39]: 0.78
- CDI (coefficient of drug interaction) (Gold 5 μM, biocide concentration 1 of 4, E. coli): 0.92
- CDI (coefficient of drug interaction) (Gold 5 μM, biocide concentration 2 of 4, E. coli): 0.94
- CDI (coefficient of drug interaction) (Gold 5 μM, biocide concentration 3 of 4, E. coli): 0.94
- CDI (coefficient of drug interaction) (Gold 25 μM, biocide concentration 1 of 4, E. coli): 0.96
- CDI (coefficient of drug interaction) (Gold 25 μM, biocide concentration 3 of 4, E. coli): 0.96
- CDI (coefficient of drug interaction) [40]: 0.87
- CDI (coefficient of drug interaction) (Gold 50 μM, biocide concentration 1 of 4, E. coli): 0.86
- CDI (coefficient of drug interaction) (Gold 50 μM, biocide concentration 2 of 4, E. coli): 1.00
- CDI (coefficient of drug interaction) [37]: 0.96
- CDI (coefficient of drug interaction) [38]: 0.84
- CDI (coefficient of drug interaction), silver + biocide (Silver 0.5 μM, 1st of four biocide concentrations, E. coli): 0.99
- CDI (coefficient of drug interaction), silver + biocide (Silver 0.5 μM, 2nd of four biocide concentrations, E. coli): 1.03
- CDI (coefficient of drug interaction), silver + biocide [41]: 0.86
- CDI (coefficient of drug interaction), silver + biocide [34]: 0.73
- CDI (coefficient of drug interaction), silver + biocide (Silver 1.0 μM, 1st of four biocide concentrations, E. coli): 0.97
- CDI (coefficient of drug interaction), silver + biocide (Silver 1.0 μM, 2nd of four biocide concentrations, E. coli): 0.95
- CDI (coefficient of drug interaction), silver + biocide [42]: 0.87
- CDI (coefficient of drug interaction), silver + biocide [35]: 0.59
- CDI (coefficient of drug interaction), silver + biocide (Silver 5.0 μM, 1st of four biocide concentrations, E. coli): 0.96
- CDI (coefficient of drug interaction), silver + biocide [43]: 0.54
- CDI (coefficient of drug interaction), silver + biocide [36]: 0.24

Molecule: c1cnc2c(c1)ccc1cccnc12 [1,10-phenanthroline]
- CDI (Copper 0.1 mM, biocide concentration 3 of 4): Tox
- CDI (Copper 0.1 mM, biocide concentration 4 of 4): Tox
- CDI (Copper 0.5 mM, biocide concentration 3 of 4): Tox
- CDI (Copper 0.5 mM, biocide concentration 4 of 4): Tox
- CDI (Copper 1.0 mM, biocide concentration 3 of 4): Tox
- CDI (Copper 1.0 mM, biocide concentration 4 of 4): Tox
- CDI (coefficient of drug interaction) (Gold 5 μM, biocide concentration 4 of 4, E. coli): Tox
- CDI (coefficient of drug interaction) [40]: Tox
- CDI (coefficient of drug interaction) [38]: Tox
- CDI (coefficient of drug interaction), silver + biocide [41]: Tox
- CDI (coefficient of drug interaction), silver + biocide [34]: Tox
- CDI (coefficient of drug interaction), silver + biocide [42]: Tox
- CDI (coefficient of drug interaction), silver + biocide [35]: Tox
- CDI (coefficient of drug interaction), silver + biocide [43]: Tox
- CDI (coefficient of drug interaction), silver + biocide [36]: Tox

Molecule: N=C(N)N [guanidine hydrochloride]
- CDI (coefficient of drug interaction), copper mixed with biocide (1st of 3 copper concentrations (value not shown), 4th of four biocide concentrations): Tox
- CDI (coefficient of drug interaction), copper mixed with biocide (2nd of 3 copper concentrations (value not shown), 4th of four biocide concentrations): Tox
- CDI (coefficient of drug interaction), copper mixed with biocide [39]: Tox
- CDI (coefficient of drug interaction) (Gold section of Table 5, first of three gold concentrations (μM, value not given), biocide concentration 4 of 4): Tox
- CDI (coefficient of drug interaction) (Gold section of Table 5, second of three gold concentrations (μM, value not given), biocide concentration 4 of 4): Tox
- CDI (coefficient of drug interaction) (Gold section of Table 5, third of three gold concentrations (μM, value not given), biocide concentration 4 of 4): Tox
- CDI (coefficient of drug interaction), silver + biocide [34]: Tox
- CDI (coefficient of drug interaction), silver + biocide [35]: Tox
- CDI (coefficient of drug interaction), silver + biocide [36]: Tox

Molecule: Cc1ccc2c(Cl)cc(Cl)c(O)c2n1 [5,7-dichloro-8-hydroxyquinaldine]
- CDI (coefficient of drug interaction), silver + biocide [34]: Tox
- CDI (coefficient of drug interaction), silver + biocide [35]: Tox
- CDI (coefficient of drug interaction), silver + biocide [36]: Tox

Molecule: O=C(O)c1cc(O)c(O)c(O)c1 [gallic acid]
- CDI (coefficient of drug interaction) [4]: Tox
- CDI (coefficient of drug interaction) [8]: Tox
- CDI (coefficient of drug interaction) [12]: Tox
- CDI (coefficient of drug interaction), gold + biocide [16]: Tox
- CDI (coefficient of drug interaction), gold + biocide [18]: Tox
- CDI (coefficient of drug interaction), gold + biocide [22]: Tox
- CDI [25]: Tox
- CDI [29]: Tox
- CDI [33]: Tox
